# Laboratory results as given in patent publication US12630535B2, “Inhibitors of ACK1/TNK2 tyrosine kinase” (H. LEE MOFFITT CANCER CENTER AND RESEARCH INSTITUTE, INC., priority 2020, dated 2026).
# What was measured:
# ACK1 [1] = target: T1, ACK1 (Homo sapiens, UniProt Q07912); assay: Reaction Biology 33P Hotspot assay; assay type: biochemical
# ACK1 [2] = target: T1, ACK1; assay: ACK1 IC50 (Table 1); assay type: biochemical
# ACK1 [3] = target: T1, ACK1; assay: ACK1 ELISA; assay type: biochemical; settings: read-out: ACK1 ELISA % Inhibition at 100 nM
# [4] = system: castration and radioresistant prostate xenograft tumor; settings: cited from earlier work
# [5] = system: AKT Tyr176 phosphorylation; settings: pancreatic cancer cells; cited from earlier work
# [6] = system: AR Tyr267 phosphorylation; settings: cited from earlier work
# A549 lung cancer cell = settings: 10 μM; cited from earlier work
# [7] = system: ACK1 autophosphorylation (Tyr284); settings: HEK293 cells, 2 μM; cited from earlier work
# [8] = mouse models; cited from earlier work
# [9] = system: ACK1 in NCI-H1703 human non-small cell lung cancer cells; settings: read-out: IC50 for ACK1 inhibition in NCI-H1703 cells (ELISA); cited from earlier work
# T1 sequence (Q07912 whole entry): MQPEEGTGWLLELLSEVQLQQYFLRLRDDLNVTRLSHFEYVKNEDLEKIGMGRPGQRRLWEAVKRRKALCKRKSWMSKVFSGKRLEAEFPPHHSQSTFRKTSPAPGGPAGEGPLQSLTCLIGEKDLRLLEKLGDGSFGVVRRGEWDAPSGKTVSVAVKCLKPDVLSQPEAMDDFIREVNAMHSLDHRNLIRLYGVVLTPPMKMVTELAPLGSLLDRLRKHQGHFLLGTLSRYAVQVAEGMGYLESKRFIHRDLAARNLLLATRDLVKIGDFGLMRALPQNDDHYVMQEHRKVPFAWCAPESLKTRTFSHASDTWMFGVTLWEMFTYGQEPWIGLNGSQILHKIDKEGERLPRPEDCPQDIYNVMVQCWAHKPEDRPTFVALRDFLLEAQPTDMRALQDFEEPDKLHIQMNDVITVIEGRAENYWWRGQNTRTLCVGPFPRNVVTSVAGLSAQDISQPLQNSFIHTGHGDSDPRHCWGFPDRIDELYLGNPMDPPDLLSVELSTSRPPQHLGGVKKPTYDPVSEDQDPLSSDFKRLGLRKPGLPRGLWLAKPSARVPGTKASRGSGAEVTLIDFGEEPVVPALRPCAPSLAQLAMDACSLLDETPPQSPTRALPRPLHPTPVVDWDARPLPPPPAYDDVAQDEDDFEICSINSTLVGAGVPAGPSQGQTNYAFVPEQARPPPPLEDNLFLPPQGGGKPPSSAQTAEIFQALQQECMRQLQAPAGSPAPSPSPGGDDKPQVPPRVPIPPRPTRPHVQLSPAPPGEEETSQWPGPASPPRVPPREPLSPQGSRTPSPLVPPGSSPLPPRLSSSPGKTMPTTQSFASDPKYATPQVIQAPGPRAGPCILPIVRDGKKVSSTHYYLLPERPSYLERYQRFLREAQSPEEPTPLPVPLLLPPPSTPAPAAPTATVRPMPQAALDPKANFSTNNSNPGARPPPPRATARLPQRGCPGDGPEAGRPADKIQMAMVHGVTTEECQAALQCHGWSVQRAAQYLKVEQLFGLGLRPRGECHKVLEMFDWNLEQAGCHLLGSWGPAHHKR
smiles,measurement,setting,value
CN1CCN(c2ccc(Nc3ncc(Cl)c(NC[C@H]4CCCO4)n3)cc2C#N)CC1,IC50,ACK1 [1],112 nM
CN1CCN(c2ccc(Nc3ncc(Cl)c(NC[C@H]4CCCO4)n3)cc2CO)CC1,IC50,ACK1 [1],51 nM
CC(=O)N1CCN(c2ccc(Nc3ncc(Cl)c(NCC4CCOCC4)n3)cc2OC(C)C)CC1 [1-(4-(4-((5-chloro-4-(((tetrahydro-2H-pyran-4-yl)methyl)amino)pyrimidin-2-yl)amino)-2-isopropoxyphenyl)piperazin-1-yl)ethan-1-one],IC50,ACK1 [1],9.87 nM
COc1cc(N2CCN(C(C)=O)CC2)ccc1Nc1ncc(Cl)c(NCC2CCOCC2)n1 [1-(4-(4-((5-chloro-4-(((tetrahydro-2H-pyran-4-yl)methyl)amino)pyrimidin-2-yl)amino)-3-methoxyphenyl)piperazin-1-yl)ethan-1-one],IC50,ACK1 [1],17.3 nM
CC(=O)N1CCN(c2ccc(Nc3ncc(Cl)c(NCC4CCOCC4)n3)cc2)CC1 [1-(4-(4-((5-chloro-4-(((tetrahydro-2H-pyran-4-yl)methyl)amino)pyrimidin-2-yl)amino)phenyl)piperazin-1-yl)ethan-1-one],IC50,ACK1 [1],26.6 nM
"COc1cc(C2CCN(C)CC2)ccc1Nc1ncc(Cl)c(NCC2CCOCC2)n1 [5-chloro-N^2-(2-methoxy-4-(1-methylpiperidin-4-yl)phenyl)-N^4-((tetrahydro-2H-pyran-4-yl)methyl)pyrimidine-2,4-diamine]",IC50,ACK1 [2],20.2 nM
"COc1ccc(CNc2nc(Nc3ccc(N4CCN(C)CC4)cc3OC)ncc2Cl)cc1 [5-chloro-N^2-(2-methoxy-4-(4-methylpiperazin-1-yl)phenyl)-N^4-(4-methoxybenzyl)pyrimidine-2,4-diamine]",inhibition at 0.1 µM,ACK1 [3],70.3%
same,IC50,ACK1 [2],82.9 nM
"COc1cc(N2CCN(C)CC2)ccc1Nc1ncc(Cl)c(NCc2ccc(C)cc2)n1 [5-chloro-N^2-(2-methoxy-4-(4-methylpiperazin-1-yl)phenyl)-N^4-(4-methylbenzyl)pyrimidine-2,4-diamine]",inhibition at 0.1 µM,ACK1 [3],77.6%
same,IC50,ACK1 [2],50.8 nM
"COc1cc(N2CCN(C)CC2)ccc1Nc1ncc(Cl)c(NCC2CCOCC2)n1 [5-chloro-N^2-(2-methoxy-4-(4-methylpiperazin-1-yl)phenyl)-N^4-((tetrahydro-2H-pyran-4-yl)methyl)pyrimidine-2,4-diamine]",IC50,ACK1 [2],14.9 nM
"COc1c(Nc2ncc(Cl)c(NCC3CCOCC3)n2)ccc(N2CCN(C)CC2)c1F [5-chloro-N^2-(3-fluoro-2-methoxy-4-(4-methylpiperazin-1-yl)phenyl)-N^4-((tetrahydro-2H-pyran-4-yl)methyl)pyrimidine-2,4-diamine]",IC50,ACK1 [1],87.9 nM
"CN1CCC(c2ccc(Nc3ncc(Cl)c(NCC4CCOCC4)n3)cc2F)CC1 [5-chloro-N^2-(3-fluoro-4-(1-methylpiperidin-4-yl)phenyl)-N^4-((tetrahydro-2H-pyran-4-yl)methyl)pyrimidine-2,4-diamine]",IC50,ACK1 [2]; unit inferred,35.9 nM
"CN1CCN(c2ccc(Nc3ncc(Cl)c(NCC4CCOCC4)n3)cc2F)CC1 [5-chloro-N^2-(3-fluoro-4-(4-methylpiperazin-1-yl)phenyl)-N^4-((tetrahydro-2H-pyran-4-yl)methyl)pyrimidine-2,4-diamine]",IC50,ACK1 [2],19.8 nM
"CN1CCC(c2ccc(Nc3ncc(Cl)c(NCC4CCOCC4)n3)cc2)CC1 [5-chloro-N^2-(4-(1-methylpiperidin-4-yl)phenyl)-N^4-((tetrahydro-2H-pyran-4-yl)methyl)pyrimidine-2,4-diamine]",IC50,ACK1 [2],39.5 nM
"CN1CCN(c2ccc(Nc3ncc(Cl)c(NCC4CCOCC4)n3)cc2)CC1 [5-chloro-N^2-(4-(4-methylpiperazin-1-yl)phenyl)-N^4-((tetrahydro-2H-pyran-4-yl)methyl)pyrimidine-2,4-diamine]",IC50,ACK1 [2],20.5 nM
"CN1CCN(Cc2ccc(Nc3ncc(Cl)c(NCC4CCCO4)n3)cc2)CC1 (centres unmarked) [5-chloro-N^2-(4-((4-methylpiperazin-1-yl)methyl)phenyl)-N^4-((tetrahydrofuran-2-yl)methyl)pyrimidine-2,4-diamine]",IC50,ACK1 [1],145 nM
"COc1cc(N2CCN(C)CC2)c(F)cc1Nc1ncc(Cl)c(NCC2CCOCC2)n1 [5-chloro-N^2-(5-fluoro-2-methoxy-4-(4-methylpiperazin-1-yl)phenyl)-N4-((tetrahydro-2H-pyran-4-yl)methyl)pyrimidine-2,4-diamine]",IC50,ACK1 [1],11.9 nM
"COc1cc(N2CCN(C)CC2)ccc1Nc1ncc(Cl)c(NCc2ccc(Cl)cc2Cl)n1 [5-chloro-N^4-(2,4-dichlorobenzyl)-N^2-(2-methoxy-4-(4-methylpiperazin-1-yl)phenyl)pyrimidine-2,4-diamine]",inhibition at 0.1 µM,ACK1 [3],78.1%
same,IC50,ACK1 [2],70.1 nM
"COc1cc(N2CCN(C)CC2)ccc1Nc1ncc(Cl)c(NCc2ccc(Cl)cc2)n1 [5-chloro-N^4-(4-chlorobenzyl)-N^2-(2-methoxy-4-(4-methylpiperazin-1-yl)phenyl)pyrimidine-2,4-diamine]",inhibition at 0.1 µM,ACK1 [3],67.9%
"COc1cc(N2CCN(C)CC2)ccc1Nc1ncc(Cl)c(NCc2ccc(F)cc2)n1 [5-chloro-N^4-(4-fluorobenzyl)-N^2-(2-methoxy-4-(4-methylpiperazin-1-yl)phenyl)pyrimidine-2,4-diamine]",inhibition at 0.1 µM,ACK1 [3],91.2%
same,IC50,ACK1 [2],43.9 nM
"CN1CCN(c2ccc(Nc3ncc(Cl)c(NCc4ccc(F)cc4)n3)cc2)CC1 [5-chloro-N^4-(4-fluorobenzyl)-N^2-(4-(4-methylpiperazin-1-yl)phenyl)pyrimidine-2,4-diamine]",inhibition at 0.1 µM,ACK1 [3],94%
same,IC50,ACK1 [2],35.6 nM
"CN1CCC(c2cc(F)c(Nc3ncc(Cl)c(NC[C@H]4CCCO4)n3)cc2F)CC1 [(R)-5-chloro-N^2-(2,5-difluoro-4-(1-methylpiperidin-4-yl)phenyl)-N^4-((tetrahydrofuran-2-yl)methyl)pyrimidine-2,4-diamine]",IC50,ACK1 [2],44.7 nM
"Cc1cc(Nc2ncc(Cl)c(NC[C@H]3CCCO3)n2)c(F)cc1C1CCN(C)CC1 [(R)-5-chloro-N^2-(2-fluoro-5-methyl-4-(1-methylpiperidin-4-yl)phenyl)-N^4-((tetrahydrofuran-2-yl)methyl)pyrimidine-2,4-diamine]",IC50,ACK1 [2],85.3 nM
"CN1CCN(c2cccc(Nc3ncc(Cl)c(NC[C@H]4CCCO4)n3)c2)CC1 [(R)-5-chloro-N^2-(3-(4-methylpiperazin-1-yl)phenyl)-N^4-((tetrahydrofuran-2-yl)methyl)pyrimidine-2,4-diamine]",IC50,ACK1 [1],88 nM
"COCCOCc1cc(Nc2ncc(Cl)c(NC[C@H]3CCCO3)n2)ccc1N1CCN(C)CC1 [(R)-5-chloro-N^2-(3-((2-methoxyethoxy)methyl)-4-(4-methylpiperazin-1-yl)phenyl)-N^4-((tetrahydrofuran-2-yl)methyl)pyrimidine-2,4-diamine]",IC50,ACK1 [1],198 nM
"CC(C)OCc1cc(Nc2ncc(Cl)c(NC[C@H]3CCCO3)n2)ccc1N1CCN(C)CC1 [(R)-5-chloro-N^2-(3-(isopropoxymethyl)-4-(4-methylpiperazin-1-yl)phenyl)-N^4-((tetrahydrofuran-2-yl)methyl)pyrimidine-2,4-diamine]",IC50,ACK1 [1],167 nM
"CC(C)Oc1cc(Nc2ncc(Cl)c(NC[C@H]3CCCO3)n2)ccc1C1CCN(C)CC1 [(R)-5-chloro-N^2-(3-isopropoxy-4-(1-methylpiperidin-4-yl)phenyl)-N^4-((tetrahydrofuran-2-yl)methyl)pyrimidine-2,4-diamine]",IC50,ACK1 [1],62 nM
"COc1cc(Nc2ncc(Cl)c(NC[C@H]3CCCO3)n2)ccc1C1CCN(C)CC1 [(R)-5-chloro-N^2-(3-methoxy-4-(1-methylpiperidin-4-yl)phenyl)-N^4-((tetrahydrofuran-2-yl)methyl)pyrimidine-2,4-diamine]",IC50,ACK1 [1],87.2 nM
c1ccc(-c2oc3ncnc(NC[C@@H]4CCCO4)c3c2-c2ccccc2)cc1 [Compound 1b],xenograft tumor growth,[4],inhibits
same,ACK1 dependent AKT Tyr176 phosphorylation,[5],inhibits
same,AR Tyr267 phosphorylation,[6],inhibits
COc1cc(N2CCN(C)CC2)ccc1Nc1ncc2c(n1)N(C)c1ccccc1C(=O)N2 [Compound 3],A549 lung cancer cell growth,A549 lung cancer cell,inhibits
same,EGF induced ACK1 autophosphorylation (Tyr284),[7],abolishes
COc1cc(Oc2ccccc2)ccc1-c1nc(C2CC(C)(O)C2)n2ccnc(N)c12 (centres unmarked) [Compound 4],oral bioavailability,[8],orally bioavailable
same,IC50,[9],35 nM
"COc1cc(N2CCN(C)CC2)ccc1Nc1ncc(Cl)c(NCc2ccccc2)n1 [N^4-benzyl-5-chloro-N^2-(2-methoxy-4-(4-methylpiperazin-1-yl)phenyl)pyrimidine-2,4-diamine]",inhibition at 0.1 µM,ACK1 [3],98.2%
same,IC50,ACK1 [2],48.2 nM
